Source: the supplement of paper PMC10307832

What was measured:
Assay in all cases: relative viability (nuclei count vs DMSO), 5 days (fraction); higher = more cells survive
HCC-366 = system: HCC-366
In short: (§1)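 Medians of duplicate plates are given as relative viability. That measure is the nuclei count in treated wells divided by the count in vehicle wells. Counts were taken on 4× images of lung cancer cell lines in 1536-well plates, 5 days after pin-tool dosing the day after seeding with one drug alone or a fixed anchor-drug dose plus five library-drug doses (not always all listed) in √10 steps.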

NCI-H322M = system: NCI-H322M
In short: as §1

NCI-H2228 = system: NCI-H2228
In short: as §1

ABC-1 = system: ABC-1
In short: as §1

NCI-H1993 = system: NCI-H1993
In short: as §1

EPLC-272H = system: EPLC-272H
In short: as §1

SK-MES-1 = system: SK-MES-1
In short: as §1

NCI-H1975 = system: NCI-H1975
In short: as §1

EKVX = system: EKVX
In short: as §1

NCI-H2087 = system: NCI-H2087
In short: as §1

COR-L 105 = system: COR-L 105
In short: as §1

NCI-H441 = system: NCI-H441
In short: as §1

H3255 = system: H3255
In short: as §1

NCI-H1792 = system: NCI-H1792
In short: as §1

NCI-H2085 = system: NCI-H2085
In short: as §1

NCI-H2009 = system: NCI-H2009
In short: as §1

CAL-12T = system: CAL-12T
In short: as §1

HCC-827 = system: HCC-827
In short: as §1

NCI-H460 = system: NCI-H460
In short: as §1

NCI-H1355 = system: NCI-H1355
In short: as §1

`Cc1csc(=NC2CCCCC2)n1/N=C/c1ccc(O)c(O)c1O` [MIM1] + Cc1nc(NC(=O)N2CCC[C@H]2C(N)=O)sc1-c1ccnc(C(C)(C)C(F)(F)F)c1 [Alpelisib] (partner 2 µM) showed a relative viability (HCC-366; first compound 0.2 µM) of 0.37, a relative viability (HCC-366; first compound 0.6325 µM) of 0.37 and a relative viability (HCC-366; first compound 2 µM) of 0.335. It also gave a relative viability (HCC-366; first compound 6.325 µM) of 0.308, a relative viability (HCC-366; first compound 20 µM) of 0.0363 and a relative viability (NCI-H322M; first compound 0.2 µM) of 0.771. For the same molecule, the relative viability (NCI-H322M; first compound 0.6325 µM) was 0.737, the relative viability (NCI-H322M; first compound 2 µM) was 0.836 and the relative viability (NCI-H322M; first compound 6.325 µM) was 0.74. The relative viability (NCI-H322M; first compound 20 µM) was 0.834, the relative viability (NCI-H2228; first compound 0.2 µM) was 0.76 and the relative viability (NCI-H2228; first compound 0.6325 µM) was 1.09. It also gave a relative viability (NCI-H2228; first compound 2 µM) of 0.666, a relative viability (NCI-H2228; first compound 6.325 µM) of 0.335 and a relative viability (NCI-H2228; first compound 20 µM) of 0.197. It also gave a relative viability (ABC-1; first compound 0.2 µM) of 1.02, a relative viability (ABC-1; first compound 0.6325 µM) of 1.05 and a relative viability (ABC-1; first compound 2 µM) of 0.913. The relative viability (ABC-1; first compound 6.325 µM) was 0.816, the relative viability (ABC-1; first compound 20 µM) was 0.322 and the relative viability (NCI-H1993; first compound 0.2 µM) was 0.715. It also gave a relative viability (NCI-H1993; first compound 0.6325 µM) of 0.619, a relative viability (NCI-H1993; first compound 2 µM) of 0.758 and a relative viability (NCI-H1993; first compound 6.325 µM) of 0.724. The relative viability (NCI-H1993; first compound 20 µM) was 0.55, the relative viability (EPLC-272H; first compound 0.2 µM) was 0.968 and the relative viability (EPLC-272H; first compound 0.6325 µM) was 0.769. For the same molecule, the relative viability (EPLC-272H; first compound 2 µM) was 0.973, the relative viability (EPLC-272H; first compound 6.325 µM) was 0.958 and the relative viability (EPLC-272H; first compound 20 µM) was 0.294. For the same molecule, the relative viability (SK-MES-1; first compound 0.2 µM) was 0.913, the relative viability (SK-MES-1; first compound 0.6325 µM) was 0.774 and the relative viability (SK-MES-1; first compound 2 µM) was 0.813. The relative viability (SK-MES-1; first compound 6.325 µM) was 0.8, the relative viability (SK-MES-1; first compound 20 µM) was 0.725 and the relative viability (NCI-H1975; first compound 0.2 µM) was 0.63. It also gave a relative viability (NCI-H1975; first compound 0.6325 µM) of 0.624, a relative viability (NCI-H1975; first compound 2 µM) of 0.569 and a relative viability (NCI-H1975; first compound 6.325 µM) of 0.391. It also gave a relative viability (NCI-H1975; first compound 20 µM) of 0.313, a relative viability (EKVX; first compound 0.2 µM) of 0.924 and a relative viability (EKVX; first compound 0.6325 µM) of 0.91. The relative viability (EKVX; first compound 2 µM) was 0.934, the relative viability (EKVX; first compound 6.325 µM) was 0.575 and the relative viability (EKVX; first compound 20 µM) was 0.615. For the same molecule, the relative viability (NCI-H2087; first compound 0.2 µM) was 1.17, the relative viability (NCI-H2087; first compound 0.6325 µM) was 1.2 and the relative viability (NCI-H2087; first compound 2 µM) was 1.06. The relative viability (NCI-H2087; first compound 6.325 µM) was 0.886, the relative viability (NCI-H2087; first compound 20 µM) was 0.706 and the relative viability (COR-L 105; first compound 0.2 µM) was 0.782. It also gave a relative viability (COR-L 105; first compound 0.6325 µM) of 0.971, a relative viability (COR-L 105; first compound 2 µM) of 0.849 and a relative viability (COR-L 105; first compound 6.325 µM) of 0.934. It also gave a relative viability (COR-L 105; first compound 20 µM) of 0.966, a relative viability (NCI-H441; first compound 0.2 µM) of 0.75 and a relative viability (NCI-H441; first compound 0.6325 µM) of 0.63. It also gave a relative viability (NCI-H441; first compound 2 µM) of 0.655, a relative viability (NCI-H441; first compound 6.325 µM) of 0.594 and a relative viability (NCI-H441; first compound 20 µM) of 0.187. It also gave a relative viability (H3255; first compound 0.2 µM) of 0.753, a relative viability (H3255; first compound 0.6325 µM) of 0.56 and a relative viability (H3255; first compound 2 µM) of 0.642. For the same molecule, the relative viability (H3255; first compound 6.325 µM) was 0.523, the relative viability (H3255; first compound 20 µM) was 0.311 and the relative viability (NCI-H1792; first compound 0.2 µM) was 0.67. It also gave a relative viability (NCI-H1792; first compound 0.6325 µM) of 0.654, a relative viability (NCI-H1792; first compound 2 µM) of 0.694 and a relative viability (NCI-H1792; first compound 6.325 µM) of 0.433. The relative viability (NCI-H1792; first compound 20 µM) was 0.599, the relative viability (NCI-H2085; first compound 0.2 µM) was 0.946 and the relative viability (NCI-H2085; first compound 0.6325 µM) was 1.02. The relative viability (NCI-H2085; first compound 2 µM) was 0.984, the relative viability (NCI-H2085; first compound 6.325 µM) was 0.84 and the relative viability (NCI-H2085; first compound 20 µM) was 0.882. For the same molecule, the relative viability (NCI-H2009; first compound 0.2 µM) was 1.14, the relative viability (NCI-H2009; first compound 0.6325 µM) was 1.21 and the relative viability (NCI-H2009; first compound 2 µM) was 1.23. It also gave a relative viability (NCI-H2009; first compound 6.325 µM) of 1.04, a relative viability (NCI-H2009; first compound 20 µM) of 0.987 and a relative viability (CAL-12T; first compound 0.2 µM) of 1.14. It also gave a relative viability (CAL-12T; first compound 0.6325 µM) of 1.36, a relative viability (CAL-12T; first compound 2 µM) of 1.24 and a relative viability (CAL-12T; first compound 6.325 µM) of 0.997. It also gave a relative viability (CAL-12T; first compound 20 µM) of 0.973, a relative viability (HCC-827; first compound 0.2 µM) of 0.953 and a relative viability (HCC-827; first compound 0.6325 µM) of 0.986. For the same molecule, the relative viability (HCC-827; first compound 2 µM) was 0.913, the relative viability (HCC-827; first compound 6.325 µM) was 0.441 and the relative viability (HCC-827; first compound 20 µM) was 0.34. For the same molecule, the relative viability (NCI-H460; first compound 0.2 µM) was 0.43, the relative viability (NCI-H460; first compound 0.6325 µM) was 0.549 and the relative viability (NCI-H460; first compound 2 µM) was 0.456. It also gave a relative viability (NCI-H460; first compound 6.325 µM) of 0.204, a relative viability (NCI-H460; first compound 20 µM) of 0.0234 and a relative viability (NCI-H1355; first compound 0.2 µM) of 0.89. The relative viability (NCI-H1355; first compound 0.6325 µM) was 0.805, the relative viability (NCI-H1355; first compound 2 µM) was 0.924 and the relative viability (NCI-H1355; first compound 6.325 µM) was 0.672. The relative viability (NCI-H1355; first compound 20 µM) was 0.359.
